Experiment [1] deals with MV4;11 cells. Briefly: Cell viability assay (CellTiter-Glo) in MV4;11 cells. Format: cell-based. The settings on record: read-out: MV4. In outline: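 5000 cells/well in RPMI 1640 or DMEM with 10% FBS, treated with 8- or 12-point 3-fold compound dilutions, with or without gilteritinib (10 nM for MV4;11, 20 nM for MOLM-13). Viability by CellTiter-Glo after three days; IC50 by nonlinear least-squares regression.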
(In general: In ATP-based viability assays light output follows the ATP content of the culture.)

Experiment [2] concerns MOLM-13 cells. Briefly: Cell viability assay (CellTiter-Glo) in MOLM-13 cells. The class given is cell-based.
The mark [3] stands for this setting: Homo sapiens, MV4-11, 72 h, 11 IC50 (nM).
Setting [4] is: 11 IC50 (nM) + 10 nM Gil, MV4;11 cells, with 10 nM gilteritinib, three days.
[5] abbreviates: Homo sapiens, MOLM-13, 72 h, read-out: MOLM-13 IC50 (nM).
Setting [6] is: read-out: MOLM-13 IC50 (nM) + 10 nM Gil, MOLM-13 cells, with gilteritinib, three days.
Setting [7] is: Homo sapiens, MV4-11, 72 h, MV4;11 cells, compound alone, three days, 11 IC50.
[8] abbreviates: MV4;11 cells, with 10 nM gilteritinib, three days, 11 IC50 (nM) + 10 nM Gil.
Setting [9] is: Homo sapiens, 72 h, MOLM-13 cells, compound alone, three days, read-out: MOLM-13 IC50.
The mark [10] stands for this setting: MOLM-13 cells, with gilteritinib, three days, read-out: MOLM-13 IC50 (nM) + 10 nM Gil.

Structures are written as SMILES. Where two headings read alike, the source gives them in different places. Bounds are passed on as bounds.

As to `CC(C)n1cnc2cnc(-c3cn([C@H]4C[C@H](CNc5ccc6c(c5)C(=O)N(C5CCC(=O)NC5=O)C6=O)C4)nc3C3CC3)cc21` (stereo partly drawn) [GS-664, 5-(((Trans-3-(3-cyclopropyl-4-(1-isopropyl-1H-imidazo[4,5-c]pyridin-6-yl)-1H-pyrazol-1-yl)cyclobutyl)methyl)amino)-2-(2,6-dioxopiperidin-3-yl)isoindoline-1,3-dione], the IC50 in experiment [1] (setting [3]) is above 1000 nM; in experiment [1] (setting [4]) it was 100 to 1000 nM; in experiment [2] (setting [5]), above 1000 nM; in experiment [2] (setting [6]), 100 to 1000 nM.
For the compound `Cc1cc(F)cnc1-c1cn([C@H]2C[C@H](CNc3ccc4c(c3)C(=O)N(C3CCC(=O)NC3=O)C4=O)C2)nc1C1CC1` (stereo partly drawn) [GS-717, 5-(((Trans-3-(3-cyclopropyl-4-(5-fluoro-3-methylpyridin-2-yl)-1H-pyrazol-1-yl)cyclobutyl)methyl)amino)-2-(2,6-dioxopiperidin-3-yl)isoindoline-1,3-dione], the IC50 in experiment [1] (setting [7]) was below 10 nM; in experiment [1] (setting [8]), below 10 nM; in experiment [2] (setting [9]) it was 10 to 100 nM; in experiment [2] (setting [10]), below 10 nM.
On to `Cc1nc(-c2cn(C3CC(O)(CNc4ccc5c(c4)C(=O)N(C4CCC(=O)NC4=O)C5=O)C3)nc2C2CC2)ccc1F` (stereo not drawn) [GS-759, 5-(((Cis-3-(3-cyclopropyl-4-(5-fluoro-6-methylpyridin-2-yl)-1H-pyrazol-1-yl)-1-hydroxycyclobutyl)methyl)amino)-2-(2,6-dioxopiperidin-3-yl)isoindoline-1,3-dione], for which the IC50 was 100 to 1000 nM in experiment [1] (MV4;11 cells, compound alone, three days, 11 IC50); 10 to 100 nM in experiment [1] (setting [8]); above 1000 nM in experiment [2] (setting [9]); 10 to 100 nM in experiment [2] (setting [10]).
As to `Cc1c2ccccc2nn1[C@H]1C[C@H](CNc2ccc3c(c2)C(=O)N(C2CCC(=O)NC2=O)C3=O)C1` (stereo partly drawn) [GS-688, 2-(2,6-Dioxopiperidin-3-yl)-5-(((trans-3-(3-methyl-2H-indazol-2-yl)cyclobutyl)methyl)amino)isoindoline-1,3-dione], the IC50 in experiment [1] (setting [7]) was above 1000 nM; in experiment [2] (setting [9]) it was above 1000 nM; in experiment [2] (setting [10]) it was 100 to 1000 nM.
Take `O=C1CCC(N2Cc3cc(NC[C@H]4C[C@H](n5cc(-c6cnc7ccccc7n6)c(C6CC6)n5)C4)ccc3C2=O)C(=O)N1` (stereo partly drawn) [GS-651, 3-(5-(((trans-3-(3-Cyclopropyl-4-(quinoxalin-2-yl)-1H-pyrazol-1-yl)cyclobutyl)methyl)amino)-1-oxoisoindolin-2-yl)piperidine-2,6-dione]: the IC50 is below 10 nM in experiment [1] (setting [7]), below 10 nM in experiment [1] (setting [8]), 10 to 100 nM in experiment [2] (setting [9]) and below 10 nM in experiment [2] (setting [10]).
`O=C1CCC(N2C(=O)c3ccc(OC[C@H]4C[C@H](n5cc(-c6cnc7ccccc7n6)c(C6CC6)n5)C4)cc3C2=O)C(=O)N1` (stereo partly drawn) [GS-640, 5-((Trans-3-(3-cyclopropyl-4-(quinoxalin-2-yl)-1H-pyrazol-1-yl)cyclobutyl)methoxy)-2-(2,6-dioxopiperidin-3-yl)isoindoline-1,3-dione]: the IC50 is above 1000 nM in experiment [1] (setting [7]), 100 to 1000 nM in experiment [1] (setting [8]), above 1000 nM in experiment [2] (setting [9]) and 100 to 1000 nM in experiment [2] (setting [10]).
Consider `O=C1CCC(N2C(=O)c3ccc(NC[C@H]4C[C@H](n5cc(-n6ccc7ccccc76)c(C6CC6)n5)C4)cc3C2=O)C(=O)N1` (stereo partly drawn) [GS-738, 5-(((Trans-3-(3-cyclopropyl-4-(1H-indol-1-yl)-1H-pyrazol-1-yl)cyclobutyl)methyl)amino)-2-(2,6-dioxopiperidin-3-yl)isoindoline-1,3-dione], for which the IC50 in experiment [1] (setting [3]) lay in the range of 10 to 100 nM; in experiment [1] (setting [4]), 10 to 100 nM; in experiment [2] (setting [5]), 100 to 1000 nM; in experiment [2] (setting [6]), 10 to 100 nM.
Take `O=C1CCC(N2C(=O)c3ccc(NCC4CC(n5cc(-c6cnc7cc(C8CNC8)ccc7n6)c(C6CC6)n5)C4)cc3C2=O)C(=O)N1` (stereo not drawn) [GS-746]: the IC50 in experiment [1] (setting [7]) is 100 to 1000 nM; in experiment [1] (setting [8]), 10 to 100 nM; in experiment [2] (setting [9]), above 1000 nM; in experiment [2] (setting [10]) it was 10 to 100 nM.
In the case of `O=C1CCC(N2C(=O)c3ccc(NC[C@H]4C[C@H](n5cc(-c6cc7c(cn6)cnn7[C@H]6CC[C@@H](O)CC6)c(C6CC6)n5)C4)cc3C2=O)C(=O)N1` (stereo partly drawn) [GS-782], the IC50 in experiment [1] (setting [7]) was below 10 nM; in experiment [1] (setting [8]) it was below 10 nM; in experiment [2] (setting [9]) it was 10 to 100 nM; in experiment [2] (setting [10]), below 10 nM.
With `O=C1CCC(N2Cc3ccc(NC[C@H]4C[C@H](n5cc(-c6cnc7ccccc7n6)c(C6CC6)n5)C4)cc3C2=O)C(=O)N1` (stereo partly drawn) [GS-662, 3-(6-(((Trans-3-(3-cyclopropyl-4-(quinoxalin-2-yl)-1H-pyrazol-1-yl)cyclobutyl)methyl)amino)-1-oxoisoindolin-2-yl)piperidine-2,6-dione], the IC50 in experiment [1] (setting [7]) and in experiment [2] (setting [9]) was above 1000 nM in each case.
Take `COC1CCCCC1c1cn([C@H]2C[C@H](CNc3ccc4c(c3)C(=O)N(C3CCC(=O)NC3=O)C4=O)C2)nc1C1CC1` (stereo partly drawn) [GS-646, 5-(((Trans-3-(3-cyclopropyl-4-(2-methoxycyclohexyl)-1H-pyrazol-1-yl)cyclobutyl)methyl)amino)-2-(2,6-dioxopiperidin-3-yl)isoindoline-1,3-dione]: the IC50 in experiment [1] (setting [7]) fell in the range of 10 to 100 nM; in experiment [1] (setting [8]) it was 10 to 100 nM; in experiment [2] (setting [9]), 100 to 1000 nM; in experiment [2] (setting [10]), 10 to 100 nM.
As to `CC(C)n1ncc2nc(-c3cn([C@H]4C[C@H](CNc5ccc6c(c5)C(=O)N(C5CCC(=O)NC5=O)C6=O)C4)nc3C3CC3)ccc21` (stereo partly drawn) [GS-700, 5-(((Trans-3-(3-cyclopropyl-4-(1-isopropyl-1H-pyrazolo[4,3-b]pyridin-5-yl)-1H-pyrazol-1-yl)cyclobutyl)methyl)amino)-2-(2,6-dioxopiperidin-3-yl)isoindoline-1,3-dione], the IC50 in experiment [1] (setting [7]) lay within 100 to 1000 nM; in experiment [1] (setting [8]) it was 10 to 100 nM; in experiment [2] (setting [9]), 100 to 1000 nM; in experiment [2] (setting [10]) it was 10 to 100 nM.
As to `O=C1CCC(N2C(=O)c3ccc(NC[C@H]4C[C@H](n5cc(-c6ccc7c(n6)C(O)CC7)c(C6CC6)n5)C4)cc3C2=O)C(=O)N1` (stereo partly drawn) [GS-780, 5-(((Trans-3-(3-cyclopropyl-4-(7-hydroxy-6,7-dihydro-5H-cyclopenta[b]pyridin-2-yl)-1H-pyrazol-1-yl)cyclobutyl)methyl)amino)-2-(2,6-dioxopiperidin-3-yl)isoindoline-1,3-dione], the IC50 in experiment [1] (setting [7]) was 10 to 100 nM; in experiment [1] (setting [8]), below 10 nM; in experiment [2] (setting [9]) it was 10 to 100 nM; in experiment [2] (setting [10]), below 10 nM.
For `Cc1cccc(-c2cn(C3CC4(CC(C(=O)NCc5ccc6c(c5)C(=O)N(C5CCC(=O)NC5=O)C6=O)C4)C3)nc2C2CC2)n1` (stereo not drawn) [GS-774, 6-(3-Cyclopropyl-4-(6-methylpyridin-2-yl)-1H-pyrazol-1-yl)-N-((2-(2,6-dioxopiperidin-3-yl)-1,3-dioxoisoindolin-5-yl)methyl)spiro[3.3]heptane-2-carboxamide], the IC50 in experiment [1] (setting [7]) was 100 to 1000 nM; in experiment [1] (setting [8]) it was 10 to 100 nM; in experiment [2] (setting [9]), above 1000 nM; in experiment [2] (setting [10]) it was 100 to 1000 nM.
Take `N[C@H]1C[C@H](n2ncc3cnc(-c4cn([C@H]5C[C@H](CNc6ccc7c(c6)C(=O)N(C6CCC(=O)NC6=O)C7=O)C5)nc4C4CC4)cc32)C1` (stereo partly drawn) [GS-776, 5-(((Trans-3-(4-(1-(trans-3-aminocyclobutyl)-1H-pyrazolo[4,3-c]pyridin-6-yl)-3-cyclopropyl-1H-pyrazol-1-yl)cyclobutyl)methyl)amino)-2-(2,6-dioxopiperidin-3-yl)isoindoline-1,3-dione]: the IC50 in experiment [1] (setting [7]) is 10 to 100 nM; in experiment [1] (setting [8]), below 10 nM; in experiment [2] (setting [9]) it was 10 to 100 nM; in experiment [2] (setting [10]) it was below 10 nM.
Regarding `O=C1CCC(N2C(=O)c3ccc(NC[C@H]4C[C@H](n5cc(-c6ncc(F)c7[nH]ccc67)c(C6CC6)n5)C4)cc3C2=O)C(=O)N1` (stereo partly drawn) [GS-733, 5-(((Trans-3-(3-cyclopropyl-4-(7-fluoro-1H-pyrrolo[3,2-c]pyridin-4-yl)-1H-pyrazol-1-yl)cyclobutyl)methyl)amino)-2-(2,6-dioxopiperidin-3-yl)isoindoline-1,3-dione], the IC50 in experiment [1] (setting [7]), in experiment [1] (setting [8]), in experiment [2] (setting [9]) and in experiment [2] (setting [10]) was below 10 nM throughout.
With `Cn1ccnc1-c1cn([C@H]2C[C@H](CNc3ccc4c(c3)C(=O)N(C3CCC(=O)NC3=O)C4=O)C2)nc1C1CC1` (stereo partly drawn) [GS-687, 5-(((Trans-3-(3-cyclopropyl-4-(1-methyl-1H-imidazol-2-yl)-1H-pyrazol-1-yl)cyclobutyl)methyl)amino)-2-(2,6-dioxopiperidin-3-yl)isoindoline-1,3-dione], the IC50 was above 1000 nM in experiment [1] (setting [7]), 100 to 1000 nM in experiment [1] (setting [8]), above 1000 nM in experiment [2] (setting [9]) and 100 to 1000 nM in experiment [2] (setting [10]).
Turning to `Cc1nc(-c2cn([C@H]3C[C@H](C#Cc4ccc5c(c4)CN(C4CCC(=O)NC4=O)C5=O)C3)nc2C2CC2)ccc1F` (stereo partly drawn) [GS-754, 3-(5-((Trans-3-(3-cyclopropyl-4-(5-fluoro-6-methylpyridin-2-yl)-1H-pyrazol-1-yl)cyclobutyl)ethynyl)-1-oxoisoindolin-2-yl)piperidine-2,6-dione], the IC50 in experiment [1] (setting [7]) was above 1000 nM; in experiment [1] (setting [8]), 100 to 1000 nM; in experiment [2] (setting [9]) it was above 1000 nM; in experiment [2] (setting [10]) it was 100 to 1000 nM.
`O=C1CCC(N2C(=O)c3ccc(NC[C@H]4C[C@H](n5ncc6ccccc65)C4)cc3C2=O)C(=O)N1` (stereo partly drawn) [GS-728, 5-(((Trans-3-(1H-indazol-1-yl)cyclobutyl)methyl)amino)-2-(2,6-dioxopiperidin-3-yl)isoindoline-1,3-dione]: the values for the IC50 in experiment [1] (setting [7]), in experiment [2] (setting [9]) and in experiment [2] (setting [10]) were above 1000 nM, above 1000 nM and 10 to 100 nM, respectively.
